Tests used:
CDC25B = biological target: T1, CDC25B (Homo sapiens, UniProt P30305); assay: Enzymatic assay (OMFP substrate) on recombinant CDC25B; format: biochemical; conditions: mixed-model inhibition equation
T1 construct: GST (pGEX vector) (N); made in house; host or cells: E. coli BL21
Excerpt: (§1) 34 SUPPLEMENTARY MATERIALS AND METHODS
(§2) 36 Antibodies and chemicals - The following antibodies were used for Western blot:
(§3) 37 Rabbit monoclonal antibodies to CDK1-pThr14 (#2543), CDK1-pTyr15 (#9111), Histone
(§4) 39 Technology (Beverly, MA, USA). Mouse monoclonal antibodies to CDC25A (F-6, sc-
(§5) 41 from Santa Cruz Biotechnology (Santa Cruz, CA, USA). The mouse monoclonal
(§6) 42 antibody MPM2 (05-368) was from Upstate (Lake Placid, NY, USA). The mouse
(§7) 43 monoclonal antibody to the HA tag (HA.11, MMS-101P) was from BioLegend (S. Diego,
(§8) 44 CA, USA). The rabbit polyclonal antibody to PARP-1 (#227244) was obtained from
(§9) 45 Abcam. HRP-conjugated anti-mouse and anti-rabbit secondary antibodies were obtained
(§10) 46 from GE-Healthcare (Otelfingen, Switzerland). HRP-conjugated IgG-k-BP was
(§11) 47 purchased from Santa Cruz Biotechnology (Santa Cruz, CA, USA).
(§12) 48 The following antibodies were used for immunofluorescence on a Zeiss LSM 710
(§13) 49 confocal microscope: mouse monoclonal to beta-catenin (Cl. 14, BD transduction Lab.),
(§14) 50 rabbit polyclonal to lysozyme (A0099, Dako). Secondary antibodies were: Alexa 488 […]
(§15) 70 V-shaped 96 well plates and read at defined intervals on a Molecular Devices
(§16) 71 SpectraMax microplate reader (ex: 490 nm / em: 525 nm). […]
(§17) 72 calculated from Lineweaver-Burk double-reciprocal plots of the data were obtained using […]
(§18) 88 assessed as described 4. Data were plotted with Prism 7® and analyzed by non-linear […]

CDC25C = biological target: T2, CDC25C (Homo sapiens, UniProt P30307); assay: Enzymatic assay (OMFP substrate) on recombinant CDC25C; format: biochemical; conditions: mixed-model inhibition equation
T2 construct: GST (pGEX vector) (N); made in house; host or cells: E. coli BL21
T2 sequence (P30307 whole entry): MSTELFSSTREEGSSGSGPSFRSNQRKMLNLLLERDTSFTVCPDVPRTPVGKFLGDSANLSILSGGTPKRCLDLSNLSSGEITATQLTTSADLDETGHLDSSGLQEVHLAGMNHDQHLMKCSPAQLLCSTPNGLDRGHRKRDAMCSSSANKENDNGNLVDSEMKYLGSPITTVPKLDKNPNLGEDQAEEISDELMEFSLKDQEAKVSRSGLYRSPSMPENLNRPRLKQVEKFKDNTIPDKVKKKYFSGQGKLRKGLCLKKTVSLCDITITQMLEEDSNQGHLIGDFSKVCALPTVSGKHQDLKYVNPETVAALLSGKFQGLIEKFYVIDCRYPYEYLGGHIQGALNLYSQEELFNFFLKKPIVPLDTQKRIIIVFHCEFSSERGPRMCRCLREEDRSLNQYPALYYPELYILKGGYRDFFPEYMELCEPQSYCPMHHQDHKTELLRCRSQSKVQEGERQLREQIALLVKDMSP
Excerpt: as §1, §2, §3, §4, §5, §6, §7, §8, §9, §10, §11, §12, §13, §14, §15, §16, §17, §18

[1] = tested on: U2OS Tet-OFF cells expressing HA-CDC25A; assay: Cell viability of U2OS Tet-OFF cells overexpressing HA-CDC25A; format: cell-based; conditions: grown in the absence of tetracycline (HA-CDC25A induced)
Procedure: 65 Enzymatic assays - CDC25A, CDC25B and CDC25C were appropriately diluted in 10
66 mM Tris-HCl pH 8.0, 50 mM NaCl and assayed in 20 mM Tris-HCl pH 8.0, 75 mM
67 NaCl, 0.5 mM EGTA, 1 mM DTT, 0.1 mg/ml BSA and defined concentrations of
68 compounds. Reactions were started by addition of the substrate OMFP (0.1 mM). Assays
69 were carried out at room temperature in duplicate or triplicate using transparent-bottom,
as §15
71 SpectraMax microplate reader (ex: 490 nm / em: 525 nm). IC50 and kinetic parameters
72 calculated from Lineweaver-Burk double-reciprocal plots of the data were obtained using
73 GraphPad Prism software.
75 Cell culture - Wild-type HeLa and Kyoto HeLa cells stably expressing mCherry-H2B
76 were maintained in DMEM+L-Glutamine (Gibco, Life Technologies, USA)
77 supplemented with 5% fetal calf serum (FCS) (Gibco) and penicillin-streptomycin (100
78 U/ml - 100 µg/ml) (Gibco). A549 and Colo741 were grown and maintained like HeLa
79 cells but with 10% FCS. HCT116 were maintained in McCoy’s medium supplemented
80 with 10% FCS and penicillin-streptomycin. U2OS-Tet-OFF cells expressing HA-CDC25
81 were grown and maintained in DMEM+L-Glutamine, 10% Tet-free FCS and penicillin- […]
as §18

T1 sequence (P30305 whole entry): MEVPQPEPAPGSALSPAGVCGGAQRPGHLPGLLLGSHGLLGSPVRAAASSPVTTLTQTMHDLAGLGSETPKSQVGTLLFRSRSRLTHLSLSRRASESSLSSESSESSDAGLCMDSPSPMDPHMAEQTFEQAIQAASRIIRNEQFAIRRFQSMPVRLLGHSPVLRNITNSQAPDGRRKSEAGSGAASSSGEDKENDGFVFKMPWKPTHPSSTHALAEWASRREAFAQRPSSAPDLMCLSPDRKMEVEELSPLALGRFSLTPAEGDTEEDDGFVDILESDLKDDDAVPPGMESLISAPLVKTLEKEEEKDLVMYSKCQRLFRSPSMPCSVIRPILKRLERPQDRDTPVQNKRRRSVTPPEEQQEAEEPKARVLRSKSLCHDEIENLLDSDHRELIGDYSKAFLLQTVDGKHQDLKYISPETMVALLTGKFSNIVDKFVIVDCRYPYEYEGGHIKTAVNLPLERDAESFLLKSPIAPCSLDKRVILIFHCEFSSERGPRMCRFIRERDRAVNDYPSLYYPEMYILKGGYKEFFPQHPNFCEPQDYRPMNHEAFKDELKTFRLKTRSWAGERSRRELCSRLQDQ

SMILES: COc1cccc(SC2=CC(=O)c3cccc(O)c3C2=O)c1 [UPD-795, 2-(3-methoxyphenylthio)-8-hydroxynaphthalene-1,4-dione]
- Ki (CDC25B): 440 ± 100 nM
- Ki (CDC25C): 850 ± 300 nM

SMILES: O=C1C(c2ccc(O)cc2O)=CC(=O)c2c(O)cccc21 [UPD-176, 5-hydroxy-2-(2,4-dihydroxyphenyl)naphthalene-1,4-dione]
- sensitivity of CDC25A overexpressing cells (viability) [1]: remained sensitive

— PMC6362118, “Pharmacophore-guided discovery of CDC25 inhibitors causing cell cycle arrest and tumor regression” (Scientific Reports, 2019)
